# Legend:
# DLD1 tumors = assay: DLD1 xenograft mouse model; type: in vivo; details: 40 mg/kg intraperitoneally twice daily for 18 days
# HCT116 cells = assay: Dose response studies in CRC line HCT116 (wt APC); type: cell-based; details: Homo sapiens, HCT-116; read-out: IC50 towards HCT116 cells
# Excerpt: These 14 compounds then were obtained commercially and their IC50 determined by performing dose response studies with half log dilution series at 12 concentration points in two authentic CRC lines: HCT116 (wt APC) and DLD1 (truncated APC). […] These two compounds served as initial lead compounds for analog development and for additional studies.
# [1] = tested on: colorectal tumors in CPC;Apc mice; assay: CPC;Apc genetically engineered mouse model of colorectal tumors; details: in vivo
# Procedure: These mice carry a CDX2P-NLS Cre recombinase transgene and a loxP-targeted Apc allele that deletes exon 14, leading to a frame shift at codon 580 and a truncated APC protein (Hinoi, T. et al. Mouse model of colonic adenoma-carcinoma progression based on somatic Apc inactivation. Cancer Res 67, 9721-9730 (2007)). […] Weights were measured every 15 days over the treatment period. These studies were performed according to the guidelines of the UT Southwestern Institutional Animal Care and Use Committee.
compound,measurement,setting,value
COc1ccc(S(=O)(=O)N2CCC(N3CCC(C)CC3)CC2)cc1 [TASIN-1],overt toxicity,DLD1 tumors,no overt toxicity
same,IC50,HCT116 cells,> 10 µM
same,toxicity in xenograft and genetically engineered CRC mouse models,[1],without noticeable toxicity
